From patent US7811797B2, “α-isomaltosylglucosaccharide-forming enzyme, process and uses of the same” (Kabushiki Kaisha Hayashibara Seibutsu Kagaku Kenkyujo, priority 2000, dated 2010)

Tests used:
Design in all cases: key: −: no saccharide-transferred product was detected through transfer reaction to acceptor; ∀: a saccharide-transferred product was detected in an amount less than one percent through transfer reaction to acceptor; +: a saccharide-transferred product was detected in an amount over one percent but less than ten percent through transfer reaction to acceptor; ++: a saccharide-transferred product was detected in an amount over ten percent through transfer reaction to acceptor
[1] = tested on: α-isomaltosylglucosaccharide-forming enzyme; experiment: Transfer-acceptor specificity, Enzyme of Strain N75; assay type: biochemical, Bacillus globisporus N75; settings: acceptor 1.6%, PINE-DEX #100 donor 4%, one unit/g donor, 30° C., pH 6.0, 24 hours
Method: (§1) Using different saccharides, it was tested whether the saccharides were used as transferring-acceptors for the α-isomaltosylglucosaccharide-forming enzyme of the present invention. A solution of D-glucose, D-xylose, L-xylose, D-galactose, D-fructose, D-mannose, D-arabinose, D-fucose, D-psicose, L-sorbose, L-rhamnose, methyl-α-glucopyranoside, methyl-β-glucopyranoside, N-acetyl-glucosamine, sorbitol, trehalose, isomaltose, isomaltotriose, cellobiose, gentibiose, glycerol, maltitol, lactose, sucrose, α-cyclodextrin, β-cyclodextrin, γ-cyclodextrin, or L-ascorbic acid was prepared.
(§2) To each solution with a saccharide concentration of 1.6% was added “PINE-DEX #100”, a partial starch hydrolysate, as a saccharide donor, to give a concentration of 4%, and admixed with one unit/g saccharide donor, d.s.b., of either of purified specimens of α-isomaltosylglucosaccharide-forming enzyme from Bacillus globisporus C9 obtained by the method in Experiment 4-2, Bacillus globisporus C11 obtained by the method in Experiment 7-2, Bacillus globisporus N75 obtained by the method in Experiment 11-2, or Arthrobacter globiformis A19 obtained by the method in Experiment 15-2, and incubated at 30° C. and pH 6.0, except that pH 8.4 was used for the enzyme from Arthrobacter globiformis A19, for 24 hours. The reaction mixtures of the post-enzymatic reactions were analyzed on gas chromatography (abbreviated as “GLC” hereinafter) for monosaccharides and disaccharides as acceptors, and on HPLC for trisaccharides as acceptors to confirm whether these saccharides could be used as their transfer acceptors. In the case of performing GLC, the following apparatuses and conditions are used: GLC apparatus, “GC-16A” commercialized by Shimadzu Corporation, Tokyo, Japan; column, a stainless-steel column, 3 mm in diameter and 2 m in length, packed with 2% “SILICONE OV-17/[…]”, commercialized by GL Sciences Inc., Tokyo, Japan; carrier gas, nitrogen gas at a flow rate of 40 ml/min under temperature conditions of increasing from 160° C. to 320° C. at an increasing temperature rate of 7.5° C./min; and detection, a hydrogen flame ionization detector. In the case of HPLC analysis, the apparatuses and conditions used are: HPLC apparatus, “CCPD” commercialized by Tosoh Corporation, Tokyo, Japan; column, “ODS-AQ-303” commercialized by YMC Co., Ltd., Tokyo, Japan; eluent, water at a flow rate of 0.5 ml/min; and detection, a differential refractometer.

[2] = tested on: α-isomaltosylglucosaccharide-forming enzyme; experiment: Transfer-acceptor specificity, Enzyme of Strain C9; assay type: biochemical, Bacillus globisporus C9; settings: acceptor 1.6%, PINE-DEX #100 donor 4%, one unit/g donor, 30° C., pH 6.0, 24 hours
Method: as §1, §2

[3] = tested on: α-isomaltosylglucosaccharide-forming enzyme; experiment: Transfer-acceptor specificity, Enzyme of Strain C11; assay type: biochemical, Bacillus globisporus C11; settings: acceptor 1.6%, PINE-DEX #100 donor 4%, one unit/g donor, 30° C., pH 6.0, 24 hours
Method: as §1, §2

[4] = tested on: α-isomaltosylglucosaccharide-forming enzyme; experiment: Transfer-acceptor specificity, Enzyme of Strain A19; assay type: biochemical, Arthrobacter globiformis A19; settings: acceptor 1.6%, PINE-DEX #100 donor 4%, one unit/g donor, 30° C., pH 8.4, 24 hours
Method: as §1, §2

| Product of transferring reaction, Enzyme of Stain A19 [4] | SMILES | Product of transferring reaction, Enzyme of Strain N75 [1] | Product of transferring reaction, Enzyme of Strain C9 [2] | Product of transferring reaction, Enzyme of Strain C11 [3] |
| --- | --- | --- | --- | --- |
| − | CC(=O)N[C@H]1C(O)O[C@H](CO)[C@@H](O)[C@@H]1O (stereo partly drawn) [N-Acetyl-glucosamine] | + (a saccharide-transferred product was detected in an amount over one percent but less than ten percent through transfer reaction to acceptor) | + (a saccharide-transferred product was detected in an amount over one percent but less than ten percent through transfer reaction to acceptor) | + (a saccharide-transferred product was detected in an amount over one percent but less than ten percent through transfer reaction to acceptor) |
| − | OC[C@@H](O)[C@@H](O)[C@H](O)[C@@H](O)CO [Sorbitol] | − | − | − |
| − | OC[C@H]1O[C@@H]2O[C@H]3[C@H](O)[C@@H](O)[C@@H](O[C@H]4[C@H](O)[C@@H](O)[C@@H](O[C@H]5[C@H](O)[C@@H](O)[C@@H](O[C@H]6[C@H](O)[C@@H](O)[C@@H](O[C@H]7[C@H](O)[C@@H](O)[C@@H](O[C@H]1[C@H](O)[C@H]2O)O[C@@H]7CO)O[C@@H]6CO)O[C@@H]5CO)O[C@@H]4CO)O[C@@H]3CO [α-Cyclodextrin] | − | − | − |
| − | OC[C@H]1O[C@@H]2O[C@H]3[C@H](O)[C@@H](O)[C@@H](O[C@H]4[C@H](O)[C@@H](O)[C@@H](O[C@H]5[C@H](O)[C@@H](O)[C@@H](O[C@H]6[C@H](O)[C@@H](O)[C@@H](O[C@H]7[C@H](O)[C@@H](O)[C@@H](O[C@H]8[C@H](O)[C@@H](O)[C@@H](O[C@H]1[C@H](O)[C@H]2O)O[C@@H]8CO)O[C@@H]7CO)O[C@@H]6CO)O[C@@H]5CO)O[C@@H]4CO)O[C@@H]3CO [β-Cyclodextrin] | − | − | − |
| − | OC[C@H]1O[C@@H]2O[C@H]3[C@H](O)[C@@H](O)[C@@H](O[C@H]4[C@H](O)[C@@H](O)[C@@H](O[C@H]5[C@H](O)[C@@H](O)[C@@H](O[C@H]6[C@H](O)[C@@H](O)[C@@H](O[C@H]7[C@H](O)[C@@H](O)[C@@H](O[C@H]8[C@H](O)[C@@H](O)[C@@H](O[C@H]9[C@H](O)[C@@H](O)[C@@H](O[C@H]1[C@H](O)[C@H]2O)O[C@@H]9CO)O[C@@H]8CO)O[C@@H]7CO)O[C@@H]6CO)O[C@@H]5CO)O[C@@H]4CO)O[C@@H]3CO [γ-Cyclodextrin] | − | − | − |

| SMILES | Product of transferring reaction, Enzyme of Stain A19 [4] | Product of transferring reaction, Enzyme of Strain N75 [1] | Product of transferring reaction, Enzyme of Strain C9 [2] | Product of transferring reaction, Enzyme of Strain C11 [3] |
| --- | --- | --- | --- | --- |
| O=C(CO)[C@@H](O)[C@H](O)[C@@H](O)CO [L-Sorbose] | + (a saccharide-transferred product was detected in an amount over one percent but less than ten percent through transfer reaction to acceptor) | + (a saccharide-transferred product was detected in an amount over one percent but less than ten percent through transfer reaction to acceptor) | + (a saccharide-transferred product was detected in an amount over one percent but less than ten percent through transfer reaction to acceptor) | + (a saccharide-transferred product was detected in an amount over one percent but less than ten percent through transfer reaction to acceptor) |
| O=C[C@@H](O)[C@H](O)[C@@H](O)CO [L-Xylose] | + (a saccharide-transferred product was detected in an amount over one percent but less than ten percent through transfer reaction to acceptor) | ++ (a saccharide-transferred product was detected in an amount over ten percent through transfer reaction to acceptor) | ++ (a saccharide-transferred product was detected in an amount over ten percent through transfer reaction to acceptor) | ++ (a saccharide-transferred product was detected in an amount over ten percent through transfer reaction to acceptor) |
| CO[C@H]1O[C@H](CO)[C@@H](O)[C@H](O)[C@H]1O [Methyl-α-glucopyranoside] | ++ (a saccharide-transferred product was detected in an amount over ten percent through transfer reaction to acceptor) | ++ (a saccharide-transferred product was detected in an amount over ten percent through transfer reaction to acceptor) | ++ (a saccharide-transferred product was detected in an amount over ten percent through transfer reaction to acceptor) | ++ (a saccharide-transferred product was detected in an amount over ten percent through transfer reaction to acceptor) |
| CO[C@@H]1O[C@H](CO)[C@@H](O)[C@H](O)[C@H]1O [Methyl-β-glucopyranoside] | ++ (a saccharide-transferred product was detected in an amount over ten percent through transfer reaction to acceptor) | ++ (a saccharide-transferred product was detected in an amount over ten percent through transfer reaction to acceptor) | ++ (a saccharide-transferred product was detected in an amount over ten percent through transfer reaction to acceptor) | ++ (a saccharide-transferred product was detected in an amount over ten percent through transfer reaction to acceptor) |
